The values that follow come from US5795887A, “Method of inducing cholecystokinin agonist activity using 1,4- Benzodiazepine compounds” (Glaxo Wellcome Inc., priority 1994, dated 1998).

The test system of the experiment is isolated guinea pig gallbladder. As to the kind of experiment: Isolated guinea pig gallbladder assay (contraction, % CCK-induced maximal response). To be noted: Table 1; for % contraction at 30 µM / % contraction at 1 µM: Cavia porcellus; for % contraction at 30 µM: read-out: % Contraction (30 μM), expressed as % CCK-induced maximal response; for % contraction at 1 µM: read-out: % Contraction (1 μM), expressed as % CCK-induced maximal response. As for the experimental part:
3. GUINEA PIG GALL BLADDER ASSAY
Gallbladders are removed from guinea pigs sacrificed by cervical dislocation. The isolated gallbladders are cleaned of adherent connective tissue and cut into two rings from each animal (2-6 mm in length). […] Tissues are connected via gold chains and stainless steel mounting wires to isometric force displacement transducers (Grass, Model FT03 D). Responses are then recorded on a polygraph (Grass, Model 7E).
Rings are gradually stretched (over a 120 min. period) to a basal resting tension of 1 gm which is maintained throughout the experiment. During the basal tension adjustment period, the rings are exposed to acetylcholine (10^-6 M) four times to verify tissue contractility. The tissues are then exposed to a submaximal dose of sulfated CCK-8 (Sigma, 3×10^-9 M). After obtaining a stable response, the tissues are washed out 3 times rapidly and every 5 to 10 minutes for 1 hour to reestablish a stable baseline.
As a final test, ACH (10 μM) is added to induce maximal contraction.

Each structure is given as a SMILES string.

As to `CC(C)N(C(=O)CN1C(=O)C(NC(=O)Nc2cccc(-c3nn[nH]n3)c2)N=C(c2ccccc2)c2ccccc21)c1ccccc1` (stereo not shown) [Example 1, 1N-Isopropyl-2-(2-oxo-5-phenyl-3-{3-[3-(1H-tetrazol-5-yl)-phenyl]-ureido}-2,3-dihydro-benzo[e][1,4]diazepin-1-yl)-N-phenyl-acetamide], where the note is “30 μM”, the % contraction at 30 µM amounted to 63%. The same measure, in the same setting: the value for `CC1=NC(NC(=O)Nc2ccccc2)C(=O)N(CC(=O)N(c2ccccc2)C(C)C)c2ccccc21` (stereo not shown) [Example 2, N-Isopropyl-2-[5-methyl-2-oxo-3-(3-phenyl-ureido)-2,3-dihydro-benzo[e][1,4]diazepin-1-yl]-N-phenyl-acetamide] was 88%; that for `CC(C)N(C(=O)CN1C(=O)C(NC(=O)Nc2ccccc2)N=C(c2ccccc2)c2ccccc21)c1ccccc1` (stereo not shown) [Example 3] was 38%. Turning to `CC1=NC(NC(=O)Nc2cccc3cn[nH]c23)C(=O)N(CC(=O)N(c2ccccc2)C(C)C)c2ccccc21` (stereo not shown) [Example 4], the % contraction at 1 µM (1 μM) worked out at 23%. Besides, the % contraction at 30 µM (30 μM) came out at 59%. As to `CC(C)N(C(=O)CN1C(=O)C(NC(=O)Nc2cccc(C(=O)O)c2)N=C(c2ccccc2)c2ccccc21)c1ccccc1` (stereo not shown) [Example 5, 3-{3-[1-(Isopropyl-phenyl-carbamoylmethyl)-2-oxo-5-phenyl-2,3-dihydro-1H-benzo[e][1,4]diazepin-3-yl]-ureido}-benzoic acid], the % contraction at 30 µM (30 μM) worked out at 82%. For the compound `CC(C)N(C(=O)CN1C(=O)C(NC(=O)c2ccc(Cl)cc2N)N=C(c2ccccc2)c2ccccc21)c1ccccc1` (stereo not shown) [Example 6, 2-Amino-4-chloro-N-[1-(isopropyl-phenyl-carbamoylmethyl)-5-phenyl-2-oxo-5-phenyl-2,3-dihydro-1H-benzo[e][1,4]diazepin-3-yl]-benzamide], the % contraction at 1 µM (1 μM) came to 41%.

For `CC1=NC(NC(=O)Nc2cccc(C(=O)O)c2)C(=O)N(CC(=O)N(c2ccccc2)C(C)C)c2ccccc21` (stereo not shown) [Example 7, 3-{3-[1-(Isopropyl-phenyl-carbamoylmethyl)-5-methyl-2-oxo-2,3-dihydro-1H-benzo[e][1,4]diazepin-3-yl]-ureido}-benzoic acid], the % contraction at 1 µM (1 μM) amounted to 16%. The % contraction at 30 µM (30 μM) is 61%.

As to `COc1ccc(N(C(=O)CN2C(=O)C(NC(=O)Nc3cccc(C(=O)O)c3)N=C(c3ccccc3)c3ccccc32)C(C)C)cc1` (stereo not shown) [Example 8, 3-(3-{1-[Isopropyl-(4-methoxy-phenyl)-carbamoylmethyl]-2-oxo-5-phenyl-2,3-dihydro-1H-benzo[e][1,4]diazepin-3yl}-ureido)-benzoic acid], the % contraction at 1 µM (1 μM) amounted to 59%. The % contraction at 30 µM (30 μM) was 86%. On to `CC(C)N(C(=O)CN1C(=O)C(NC(=O)Nc2cccc(C(=O)O)c2)N=C(c2ccccc2)c2ccccc21)c1ccc(N(C)C)cc1` (stereo not shown) [Example 9, 3-(3-{1-[(4-Dimethylamino-phenyl)-isopropyl-carbamoylmethyl]-2-oxo-5-phenyl-2,3-dihydro-1H-benzo[e][1,4]diazepin-3-yl}-ureido)-benzoic acid], for which the % contraction at 1 µM (1 μM) is 73%. For the setting “30 μM”, the % contraction at 30 µM is 62%.

As for `COc1ccc(N(C(=O)CN2C(=O)C(CC(=O)Nc3cccc(C(=O)O)c3)N=C(c3ccccc3)c3ccccc32)C(C)C)cc1` (stereo not shown) [Example 10, 3-(2-{1-[Isopropyl-(4-methoxy-phenyl)-carbamoylmethyl]-2-oxo-5-phenyl-2,3-dihydro-1H-benzo[e][1,4]diazepin-3-yl}-acetyl-amino)-benzoic acid], for the setting “1 μM”, the % contraction at 1 µM is 54%.

In the case of `COc1ccc(N(C(=O)CN2C(=O)C(CC(=O)Nc3ccccc3)N=C(c3ccccc3)c3ccccc32)C(C)C)cc1` (stereo not shown) [Example 11, 2-{1-[Isopropyl-(4-methoxy-phenyl)-carbamoylmethyl]-2-oxo-5-phenyl-2,3-dihydro-1H-benzo[e][1,4]diazepin-3-yl}N-phenyl-acetamide], the % contraction at 1 µM (1 μM) amounted to 56%. Moreover, under “30 μM”, the % contraction at 30 µM was found to be 43%. In the case of `CC(C)N(C(=O)CN1C(=O)[C@@H](NC(=O)Nc2cccc(C(=O)O)c2)N=C(c2ccccc2)c2ccccc21)c1ccccc1` [Example 12, (S)-3-{3-[1-(Isopropyl-phenyl-carbamoylmethyl)-2-oxo-5-phenyl-2,3-dihydro-1H-benzo[e][1,4]diazepin-3-yl]-ureido}-benzoic acid], the % contraction at 30 µM (30 μM) amounted to 80%.

Take `CC(C)N(C(=O)CN1C(=O)[C@H](NC(=O)Nc2cccc(C(=O)O)c2)N=C(c2ccccc2)c2ccccc21)c1ccccc1` [Example 13, (R)-3-{3-[1-(Isopropyl-phenyl-carbamoylmethyl)-2-oxo-5-phenyl-2,3-dihydro-1H-benzo[e][1,4]diazepin-3-yl]-ureido}-benzoic acid]: the % contraction at 30 µM (30 μM) was found to be 77%. As to `CC(C)N(C(=O)CN1C(=O)C(NC(=O)c2cc3ccccc3[nH]2)N=C(c2ccccc2)c2ccccc21)c1ccccc1` (stereo not shown) [Example 14, 1H-indolyl-2-carboxylic acid [1-(isopropyl-phenyl-carbamoylmethyl)-2-oxo-5-phenyl-2,3-dihydro-1H-benzo[e][1,4]diazepin-3-yl]-amide], the % contraction at 30 µM (30 μM) was 13%. Same read-out and setting: in the case of `CC(C)N(C(=O)CN1C(=O)C(NC(=O)c2cc3ccccc3n2CC(=O)O)N=C(c2ccccc2)c2ccccc21)c1ccccc1` (stereo not shown) [Example 15, {2-[1-(Isopropyl-phenyl-carbamoylmethyl)-2-oxo-5-phenyl-2,3-dihydro-1H-benzo[e][1,4]diazepin-3-ylcarbamoyl]-indol-1-yl}-acetic acid] it was 52%; in that of `CC(C)N(C(=O)CN1C(=O)C(NC(=O)Nc2ccccc2)[N+]([O-])=C(c2ccccc2)c2ccccc21)c1ccccc1` (stereo not shown) [Example 16, N-Isopropyl-2-[4-N-oxide-2-oxo-5-phenyl-3-(3-phenyl-ureido)-2,3-dihydro-benzo[e][1,4]diazepin-1-yl]-N-phenyl-acetamide], 67%. Take `COc1ccc(N(C(=O)CN2C(=O)C(Cc3c[nH]c4ccccc34)N=C(c3ccccc3)c3ccccc32)C(C)C)cc1` (stereo not shown) [Example 17, 3-{1-[Isopropyl-(4-methoxy-phenyl)-carbamoylmethyl]-2-oxo-5-phenyl-2,3-dihydro-1H-benzo[e][1,4]diazepin-3-ylmethyl}-indolyl]: under “1 μM”, the % contraction at 1 µM worked out at 24%. Same read-out and setting: the value for `COc1ccc(N(C(=O)CN2C(=O)C(NC(=O)Nc3ccccc3)N=C(c3cccnc3)c3ccccc32)C(C)C)cc1` (stereo not shown) [Example 18, N-Isopropyl-N-(4-methoxy-phenyl)-2-[2-oxo-3-(3-phenyl-ureido)-5-pyridin-3-yl-2,3-dihydro-benzo[e][1,4]diazepin-1-yl]-acetamide] was 75%.

In the case of `CC(C)N(C(=O)CN1C(=O)C(NC(=O)Nc2ccccc2)n2cnnc2-c2ccccc21)c1ccccc1` (stereo not shown) [Example 19, N-Isopropyl-N-phenyl-2-[5-oxo-4-(3-phenyl-ureido)-4,5-dihydro-1,2,3a,6-tetraaza-benzo[e]azulen-6-yl]-acetamide], where the note is “1 μM”, the % contraction at 1 µM was 83%. The % contraction at 30 µM (30 μM) is 58%. Take `COc1ccc(N(C(=O)CN2C(=O)[C@@H](Cc3c[nH]c4ccccc34)NC(=O)c3ccccc32)C(C)C)cc1` [Example 20, (R)-2-[3-(1H-Indol-3-ylmethyl)-2,5-dioxo-2,3,4,5-tetrahydro-benzo[e][1,4]diazepin-1-yl]-N-isopropyl-N-(4-methyoxy-phenyl)-acetamide]: the % contraction at 1 µM (1 μM) is 31%. On the same count and under the same terms, the value for `COc1ccc(N(C(=O)CN2C(=O)[C@H](Cc3c[nH]c4ccccc34)NC(=O)c3ccccc32)C(C)C)cc1` [Example 21, (S)-2-[3-(1H-Indol-3-ylmethyl)-2,5-dioxo-2,3,4,5-tetrahydro-benzo[e][1,4]diazepin-1-yl]-N-isopropyl-N-(4-methyoxy-phenyl)-acetamide] was 54%; that for `COc1ccc(N(C(=O)CN2C(=O)[C@H](Cc3c[nH]c4ccccc34)n3cnnc3-c3ccccc32)C(C)C)cc1` [Example 22, S-2-[4-(1H-Indol-3-ylmethyl)-5-oxo-6,5-dihydro-1,2,3a,6-tetraaza-benzo[e]azulene-6-yl}-N-isopyropyl-N-(4-methoxy-phenyl)acetamide] was 36%; that for `COc1ccc(N(C(=O)CN2C(=O)[C@@H](Cc3c[nH]c4ccccc34)n3cnnc3-c3ccccc32)C(C)C)cc1` [Example 23, (R)-2-[4-(1H-Indol-3-ylmethyl)-5-oxo-6,5-dihydro-1,2,3a,6-tetraaza-benzo[e]azulene6-yl}-N-isopropyl-N-(4-methoxy-phenyl)-acetamide] was 36%.

For the compound `COc1ccc(N(C(=O)CN2C(=O)[C@@H](Cc3c[nH]c4ccccc34)NC(=O)c3c(CC(=O)O)cccc32)C(C)C)cc1` [Example 24], the “% Contraction (1 μM), expressed as % CCK-induced maximal response” value (1 μM) amounted to 93%. Also, the “% Contraction (30 μM), expressed as % CCK-induced maximal response” value (30 μM) was 79%.
